{
  "source": "paper PMC5365654",
  "about": "“Cyclic Boronates Inhibit All Classes of β-Lactamases” (Antimicrobial Agents and Chemotherapy, 2017)",
  "format_in_all_cases": "cell-based",
  "key": {"[1]": {"tested_on": "P. aeruginosa PA12, ST 111", "assay": "Broth microtiter dilution MIC, PA12", "conditions": "Pseudomonas aeruginosa, VIM-2 (B), read-out: MIC (mg/liter) for β-lactam", "description": "(§1) The in vitro activity of cyclic boronate 2 was assessed using nine clinical isolates carrying multiple β-lactamases (Table 3). The isolates selected included Enterobacteriaceae (E. coli ST 131, Klebsiella pneumoniae ST 258, and Providencia stuartii) producing class A ESBLs (CTX-M-15, CTX-M-27, SHV-5, and VEB-1), serine carbapenemase (KPC-2) and metallo-carbapenemases (VIM-1 and VIM-2), plasmid-mediated AmpC (CMY-2), and/or carbapenem-hydrolyzing OXA-48-like oxacillinases (OXA-181 and OXA-232) in various combinations. The activity against carbapenemase-producing strains of Pseudomonas aeruginosa (VIM-2) and Acinetobacter baumannii (OXA-23) was also investigated. All isolates have previously undergone extensive phenotypic and genotypic characterization ([60]).\n(§2) MICs were determined using commercial Sensititre GN4F panels (Thermo Scientific, UK; lot B55051) and Mueller-Hinton II cation-adjusted broth (Oxoid, UK), with and without the addition of cyclic boronate 2 at a fixed concentration of 10 μg/ml. Plates were incubated at 37°C for 18 h and MICs read by eye following the addition of alamarBlue reagent (Trek Diagnostics)."}, "A. baumannii AB14": {"tested_on": "A. baumannii AB14", "assay": "Broth microtiter dilution MIC, AB14", "conditions": "Acinetobacter baumannii, OXA-23 (D), OXA-51 (D), read-out: MIC (mg/liter) for β-lactam", "description": "as §1, §2"}, "K. pneumoniae (KP15)": {"tested_on": "K. pneumoniae (KP15)", "description": "(§3) Combination discs (Oxoid) were prepared with a fixed ratio of 2:1 between the β-lactam (μg) and cyclic boronate 2. Zones of inhibition around combined and unsupplemented discs were compared following overnight incubation on MH II plates."}, "K. pneumoniae (KP58)": {"tested_on": "K. pneumoniae (KP58)", "description": "as §3"}, "K. pneumoniae (KP41)": {"tested_on": "K. pneumoniae (KP41)", "description": "as §3"}, "P. stuartii PS71": {"tested_on": "P. stuartii PS71", "assay": "Broth microtiter dilution MIC, PS71", "conditions": "Providencia stuartii, TEM-1 (A), SHV-5 (A), VEB-1 (A), VIM-1 (B), read-out: MIC (mg/liter) for β-lactam", "description": "as §1, §2"}, "K. pneumoniae KP41": {"tested_on": "K. pneumoniae KP41", "assay": "Broth microtiter dilution MIC, KP41", "conditions": "Klebsiella pneumoniae, TEM-1, SHV-1, SHV-5, SHV-11, CTX-M-15 (A), OXA-232 (D), read-out: MIC (mg/liter) for β-lactam", "description": "as §1, §2"}, "K. pneumoniae KP58": {"tested_on": "K. pneumoniae KP58", "assay": "Broth microtiter dilution MIC, KP58", "conditions": "Klebsiella pneumoniae, SHV-11 (A), VIM-4 (B), read-out: MIC (mg/liter) for β-lactam", "description": "as §1, §2"}, "E. coli EC86": {"tested_on": "E. coli EC86", "assay": "Broth microtiter dilution MIC, EC86", "conditions": "E. coli EC86, CTX-M-15 (A), CMY-4 (C), OXA-181 (D)", "description": "as §1, §2"}, "K. pneumoniae KP15": {"tested_on": "K. pneumoniae KP15", "assay": "Broth microtiter dilution MIC, KP15", "conditions": "Klebsiella pneumoniae, TEM-1 (A), SHV-11 (A), KPC-2 (A), read-out: MIC (mg/liter) for β-lactam", "description": "as §1, §2"}, "E. coli EC107, ST 131": {"tested_on": "E. coli EC107, ST 131", "assay": "Broth microtiter dilution MIC, EC107", "conditions": "Escherichia coli, CTX-M-15 (A), OXA-1 (D), read-out: MIC (mg/liter) for β-lactam", "description": "as §1, §2"}, "E. coli EC113, ST 131": {"tested_on": "E. coli EC113, ST 131", "assay": "Broth microtiter dilution MIC, EC113", "conditions": "Escherichia coli, CTX-M-27 (A), read-out: MIC (mg/liter) for β-lactam", "description": "as §1, §2"}, "E. coli EC114, ST 131": {"tested_on": "E. coli EC114, ST 131", "assay": "Broth microtiter dilution MIC, EC114", "conditions": "Escherichia coli, TEM-1 (A), CTX-M-15 (A), OXA-1 (D), read-out: MIC (mg/liter) for β-lactam", "description": "as §1, §2"}, "[2]": {"conditions": "with cyclic boronate 2 (10 mg/liter) supplementation"}, "[3]": {"conditions": "without cyclic boronate 2 supplementation"}},
  "note": "Like-named read-outs stand apart in the source and are kept apart here.",
  "data": [
    {"smiles": "CCN1CCN(C(=O)N[C@@H](C(=O)N[C@@H]2C(=O)N3[C@@H]2SC(C)(C)[C@@H]3C(=O)O)c2ccccc2)C(=O)C1=O", "note": "[PIP, piperacillin]", "values": [
      {"measurement": "MIC", "setting": "[1]; [2]", "value": 64, "unit": "mg/L"},
      {"measurement": "MIC", "setting": "[1]; [3]", "value": "> 64", "unit": "mg/L"},
      {"measurement": "MIC", "setting": "A. baumannii AB14; [2]", "value": "> 64", "unit": "mg/L"},
      {"measurement": "MIC", "setting": "A. baumannii AB14; [3]", "value": "> 64", "unit": "mg/L"},
      {"measurement": "Synergy When Combined with (2): Fixed 2:1 µg Ratio", "setting": "K. pneumoniae (KP15)", "value": "Y"},
      {"measurement": "Synergy When Combined with (2): Fixed 2:1 µg Ratio", "setting": "K. pneumoniae (KP58)", "value": "Y"},
      {"measurement": "Synergy When Combined with (2): Fixed 2:1 µg Ratio", "setting": "K. pneumoniae (KP41)", "value": "N"},
      {"measurement": "MIC", "setting": "P. stuartii PS71; [2]", "value": "> 64", "unit": "mg/L"},
      {"measurement": "MIC", "setting": "P. stuartii PS71; [3]", "value": "> 64", "unit": "mg/L"},
      {"measurement": "MIC", "setting": "K. pneumoniae KP41; [2]", "value": "> 64", "unit": "mg/L"},
      {"measurement": "MIC", "setting": "K. pneumoniae KP41; [3]", "value": "> 64", "unit": "mg/L"},
      {"measurement": "MIC", "setting": "K. pneumoniae KP58; [2]", "value": "> 64", "unit": "mg/L"},
      {"measurement": "MIC", "setting": "K. pneumoniae KP58; [3]", "value": "> 64", "unit": "mg/L"},
      {"measurement": "MIC (mg/liter) for β-lactam", "setting": "E. coli EC86; [3]", "value": ">64", "unit": "mg/L"},
      {"measurement": "MIC", "setting": "E. coli EC86; Escherichia coli, with cyclic boronate 2 (10 mg/liter) supplementation, read-out: MIC (mg/liter) for β-lactam", "value": "> 64", "unit": "mg/L"},
      {"measurement": "MIC", "setting": "K. pneumoniae KP15; [2]", "value": "> 64", "unit": "mg/L"},
      {"measurement": "MIC", "setting": "K. pneumoniae KP15; [3]", "value": "> 64", "unit": "mg/L"},
      {"measurement": "MIC", "setting": "E. coli EC107, ST 131; [2]", "value": "> 64", "unit": "mg/L"},
      {"measurement": "MIC", "setting": "E. coli EC107, ST 131; [3]", "value": "> 64", "unit": "mg/L"},
      {"measurement": "MIC", "setting": "E. coli EC113, ST 131; [2]", "value": "≤ 16", "unit": "mg/L"},
      {"measurement": "MIC", "setting": "E. coli EC113, ST 131; [3]", "value": "> 64", "unit": "mg/L"},
      {"measurement": "MIC", "setting": "E. coli EC114, ST 131; [2]", "value": "> 64", "unit": "mg/L"},
      {"measurement": "MIC", "setting": "E. coli EC114, ST 131; [3]", "value": "> 64", "unit": "mg/L"}
    ]}
  ]
}
